Some results are limits rather than exact numbers.

Here are results for four molecules from patent publication US20030088061A1, “Materials and methods to modulate ligand binding/enzymatic activity of alpha/beta proteins containing an allosteric regulatory site” (priority 2000, published 2003).

The first test addresses T1, αEβ7 (Homo sapiens, UniProt P26010+P38570).
T1 construct: DNA encoding full-length alpha E was identified as follows; expressed in transfected cells; host or cells: JY cells, plasmid pMHneo/aE
T1 sequence (P38570 19-1179): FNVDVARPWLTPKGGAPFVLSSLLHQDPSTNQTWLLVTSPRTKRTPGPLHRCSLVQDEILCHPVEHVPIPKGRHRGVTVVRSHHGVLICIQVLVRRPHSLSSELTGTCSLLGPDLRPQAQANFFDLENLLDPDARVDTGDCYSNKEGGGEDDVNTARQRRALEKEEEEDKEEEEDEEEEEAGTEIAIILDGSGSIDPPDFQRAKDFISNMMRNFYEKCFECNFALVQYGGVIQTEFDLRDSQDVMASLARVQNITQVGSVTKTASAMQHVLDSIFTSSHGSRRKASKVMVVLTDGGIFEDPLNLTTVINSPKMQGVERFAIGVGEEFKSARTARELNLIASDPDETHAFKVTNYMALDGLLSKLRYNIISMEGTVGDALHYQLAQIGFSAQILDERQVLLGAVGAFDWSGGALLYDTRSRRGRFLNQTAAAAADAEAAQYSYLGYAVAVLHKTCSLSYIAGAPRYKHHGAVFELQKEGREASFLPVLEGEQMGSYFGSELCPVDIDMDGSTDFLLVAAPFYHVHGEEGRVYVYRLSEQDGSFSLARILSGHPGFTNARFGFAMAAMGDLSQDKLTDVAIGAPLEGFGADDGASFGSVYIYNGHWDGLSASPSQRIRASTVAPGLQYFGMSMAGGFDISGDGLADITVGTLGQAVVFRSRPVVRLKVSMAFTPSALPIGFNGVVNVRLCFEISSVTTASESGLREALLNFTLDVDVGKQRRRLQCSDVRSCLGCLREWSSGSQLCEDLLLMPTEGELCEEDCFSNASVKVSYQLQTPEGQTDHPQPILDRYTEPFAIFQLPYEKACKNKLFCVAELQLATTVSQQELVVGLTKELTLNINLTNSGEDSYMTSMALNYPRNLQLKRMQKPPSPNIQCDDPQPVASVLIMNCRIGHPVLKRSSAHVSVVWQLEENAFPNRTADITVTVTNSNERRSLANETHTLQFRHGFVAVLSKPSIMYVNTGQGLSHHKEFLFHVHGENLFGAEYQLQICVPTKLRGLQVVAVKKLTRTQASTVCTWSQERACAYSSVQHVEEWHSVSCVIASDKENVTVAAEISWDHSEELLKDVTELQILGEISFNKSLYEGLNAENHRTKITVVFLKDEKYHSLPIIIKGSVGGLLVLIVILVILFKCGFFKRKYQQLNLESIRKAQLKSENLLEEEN
T1 sequence (P26010 20-798 partner): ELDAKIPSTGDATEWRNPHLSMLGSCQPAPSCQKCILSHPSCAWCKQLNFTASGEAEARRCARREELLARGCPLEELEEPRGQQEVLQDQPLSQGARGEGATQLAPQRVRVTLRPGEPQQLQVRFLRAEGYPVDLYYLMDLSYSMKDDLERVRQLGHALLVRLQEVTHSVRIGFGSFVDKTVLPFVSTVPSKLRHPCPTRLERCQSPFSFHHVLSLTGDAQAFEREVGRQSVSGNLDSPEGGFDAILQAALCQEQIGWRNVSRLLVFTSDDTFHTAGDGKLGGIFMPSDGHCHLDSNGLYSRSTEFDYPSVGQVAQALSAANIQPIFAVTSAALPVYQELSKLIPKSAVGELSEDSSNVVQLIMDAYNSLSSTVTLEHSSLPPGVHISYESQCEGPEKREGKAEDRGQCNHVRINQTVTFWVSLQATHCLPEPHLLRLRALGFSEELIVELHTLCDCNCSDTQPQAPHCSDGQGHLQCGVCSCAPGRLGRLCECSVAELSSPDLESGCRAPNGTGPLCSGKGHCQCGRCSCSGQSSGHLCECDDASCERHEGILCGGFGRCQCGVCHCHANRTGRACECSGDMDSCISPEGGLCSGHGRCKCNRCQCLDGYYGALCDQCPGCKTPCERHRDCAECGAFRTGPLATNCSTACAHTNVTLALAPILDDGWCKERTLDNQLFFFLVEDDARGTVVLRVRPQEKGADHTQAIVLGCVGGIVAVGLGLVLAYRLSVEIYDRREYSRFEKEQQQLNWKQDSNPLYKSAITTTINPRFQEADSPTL
The experiment in a line: JY/aE+ cell adhesion to E-cadherin/Ig. In kind it is cell-based. Conditions: PMA-treated JY cells; read-out: E-cadher αEβ7 IC50. The protocol: Adhesion media (350 μl) (RPMI 1640 containing penicillin and streptomycin, L-glutamine, NaPy, and 5% FBS) was aliquotted into each well in rows A, C, E, G of a deepwell 96-well titer plate, 2.0 ml capacity (Beckman Instruments, Inc., Fullerton, Calif.) in columns 1-11. All compounds to be screened were dissolved in DMSO to a final concentration of 10 mM. Compounds were stored at −20° C., and thawed on the day of use in a 37° C. incubator. Each compound (2.1 μl) was pipetted into a single well in columns 3-11, rows A, C, E, and G in the deepwell titer plate. To wells not containing compound (A1 & A2, C1 & C2, E1 & E2, G1 & G2), 2.1 μl DMSO was added. An anti-β7 monoclonal antibody, FIB504 (ATCC, Rockville, Md.), which blocks αEβ7 binding activity, was added to wells C2 and G2 at a concentration of 7.5 μg/ml. Each deepwell titer plate was covered to prevent dessication and stored in a 37° C. incubator until ready for use.
Adhesion assays were performed in 96-well Immunlon 4 plates (Dynex Technologies, Inc., Chantilly, Va.) as follows. Each well was coated with 50 μl E-cadherin/Ig (3.0 μg/ml) in D-PBS. Control wells were coated with capture antibody FIB504, to quantitate 100% input cell binding, or coating buffer alone to determine background binding. Following an overnight incubation at 4° C., the plates were washed three times with 200 μl/well D-PBS and blocked with 1% BSA in D-PBS for at least 1 hour. The BSA solution was removed and 100 μl of adhesion media (RPMI 1640 containing penicillin and stretomycin, L-glutamine, sodium pyruvate, 0.1% BSA, and 60 ng/ml PMA), was added to rows B through G, columns 1 through 11.
At this point, 100 μl adhesion media containing a test compound at a concentration of 60 μM, was transferred from the deepwell 96-well titer plate, in triplicate, to the E-cadherin/Ig coated adhesion plate. The outer rows were filled with 300 μl of D-PBS. These plates were transferred to a humidified 37° C. incubator with an atmosphere of 5% CO2.
The adhesion assay was initiated by addition of 100 μl of the JY/aE^+ cell suspension to each well of the E-cadherin-coated plate. The final volume in each well was 300 μl adhesion media containing […], PMA (final concentration 20 ng/ml), and the test compound (final concentration 20 μM). The plates were incubated at 37° C. for 30 min. Each compound was tested in triplicate.
Adherent cells were fixed by the addition of 50 μl of a 14% glutaraldehyde solution in D-PBS. Plates were washed with water, stained with 100 μl/well 0.5% crystal violet (Sigma Corp., St. Louis, Mo.) solution for 5 min. Three hundred microliters/well of 70% ethanol was added, and adherent cells were quantitated by determining absorbance at 570 nm. Percentage of cell binding was determined by using the mean values for each triplicate in a given assay in the following formula. [formula]
During the initial screening of test compounds, each chemical entity was tested in cell-based adhesion assays at a fixed concentration of 20 μM. Those compounds that blocked JY/αEβ7-dependent adhesion to E-cadherin/Ig by 50% or more were subsequently retested at multiple concentrations to determine the inhibitory concentration at which cell binding is reduced by 50%, i.e., the IC50 value.
For each IC50 assay, 50 μl of the ligand diluted in 50 mM bicarbonate buffer (pH 9.6) was dispensed per well of an Immulon-4 plate. A single plate was used to test two different ligands, each in triplicate, The coating concentration for the various ligands was as follows: VCAM-1/Ig at 2.0 μg/ml; ICAM-1/Ig at 5.0 μg/ml; vitronectin at 0.5 μg/ml; MAdCAM-1/Ig at 3.0 μg/ml, and iC3b at 5.0 μg/ml. The capture antibody, e.g. anti-CD18 monoclonal antibody TS1/22, was added at a concentration of 10 μg/ml in 50 μl/well. Ligand-coated plates were covered and stored overnight at 4° C. The following day, the contents of each well was decanted, and each plate was washed three times with 200 μl/well D-PBS. […]
In the case of `O=C(NCc1cccnc1)c1ccccc1C(=O)Nc1sc2ccccc2c1Cl` [Cmpd K], the IC50 came to 3 µM.
The same measure, in the same setting: as for `CC(CN(C)C)NCc1ccccc1Sc1ccc(C(C)(C)C)cc1` (centres unmarked) [Cmpd Z], the figure is 3 µM.
The same measure, in the same setting: as for `CC(=O)Oc1ccccc1C(=O)n1c(-c2ccccc2)cc2ccccc21` [Cmpd D], the figure is 3 µM.
The same measure, in the same setting: with `Nc1ccc(Sc2ccc(NC(=O)CCc3ccccc3)cc2)c(Cl)c1` [Cmpd W] the figure was 5 µM.

Still in this test, the particulars now being: reproducible inhibitory activity on re-analysis; read-out: IC50, inhibition of JY/aE+ binding to E-cadherin.
As for `O=C(NCc1cccnc1)c1ccccc1C(=O)Nc1sc2ccccc2c1Cl` [Cmpd K], the IC50 was below 10 µM.
Still for that read-out and setting: with `CC(CN(C)C)NCc1ccccc1Sc1ccc(C(C)(C)C)cc1` (centres unmarked) [Cmpd Z] the figure was below 10 µM; with `CC(=O)Oc1ccccc1C(=O)n1c(-c2ccccc2)cc2ccccc21` [Cmpd D], below 10 µM; with `Nc1ccc(Sc2ccc(NC(=O)CCc3ccccc3)cc2)c(Cl)c1` [Cmpd W], below 10 µM.
